In US10933135B2, “Methods for the treatment of cardiac hypertrophy” (UNIVERSITY OF CINCINNATI, priority 2016, dated 2021):
Several values for one entry are separate records, joined by “and”; a condition that tells them apart may be missing. Equal entries are not always repeated. Entries after “also recorded” stand apart in the source; their conditions may differ. Values belong to the molecule of their own block, whether it stands above or below them.

Columns and labels:
HuR = HuR nucleo-cytoplasmic translocation by immunostaining in NRVMs; type: cell-based, rat; details: for HuR cytoplasmic translocation, fluorescent intensity ratio: agonist alone (PE 10 μM or AngII 100 nM), within 15 minutes (printed 15 hr)
Source text: All antibodies were made up in 0.6% BSA in PBS. For wheat germ agglutinin (WGA) staining, a Texas Red-X conjugate was used per manufacturer's instructions (ThermoFisher). […]

[1] = system: pressure overload (aortic constriction) mouse model of heart failure; assay: Aortic constriction (TAC) pressure overload mouse model of cardiac hypertrophy and heart failure; type: in vivo; details: TAC mice
Protocol: FIG. 7A-C. KH-3 reduces ventricular dilation and improves ejection fraction in a pressure overload (aortic constriction) mouse model of heart failure. Mice (N=10) were subjected to aortic constriction (TAC) to induce cardiac hypertrophy and heart failure. After week 4, they were randomized to receive either KH-3 (50 mg/kg 3×/week) or Vehicle (5 mice to each group). KH-3 is a small molecule inhibitor of HuR-mRNA interaction that is available from.
FIG. 8A-C. KH-3 reduces ventricular dilation and improves ejection fraction in a pressure overload (aortic constriction) mouse model of heart failure.

PKC = PKC substrate phosphorylation in NRVMs; type: cell-based, rat; details: data not shown
HuR-RNA binding = HuR-RNA binding (Homo sapiens, UniProt Q15717); assay: Plasmonic nanoparticle LSPR assay of HuR-RNA binding; details: gold nanoparticle arrays, target RNA SEQ ID NO 7, recombinant HuR protein
Sequence of HuR-RNA binding (Q15717 whole entry): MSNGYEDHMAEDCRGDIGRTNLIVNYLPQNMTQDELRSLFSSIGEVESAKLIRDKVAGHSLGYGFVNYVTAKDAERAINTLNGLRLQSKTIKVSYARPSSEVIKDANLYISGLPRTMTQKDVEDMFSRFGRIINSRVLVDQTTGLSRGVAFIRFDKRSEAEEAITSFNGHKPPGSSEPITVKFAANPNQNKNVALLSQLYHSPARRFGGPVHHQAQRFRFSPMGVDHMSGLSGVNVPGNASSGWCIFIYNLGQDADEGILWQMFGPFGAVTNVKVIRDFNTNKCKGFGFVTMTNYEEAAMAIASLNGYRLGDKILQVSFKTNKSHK
Protocol: As shown schematically in FIG. 9A-B, a pattern for either microfluidic channels or a spot plate is first made on the substrate using photolithography. Next, the hole mask procedure is carried out on top of the patterned photoresist to make the desired nanoparticle array. Briefly, this procedure involves spin coating a layer of poly(methylmethacrylate) (PMMA) followed by a layer of poly(diallyldimethylammonium chloride) (PDDA). Next, polystyrene spheres of a desired size are drop-coated onto the top of the polymer layers and a layer of 5 nm of gold is deposited over the whole assembly. After removal of the polystyrene spheres by tape-stripping, the masks are subjected to oxygen plasma etching to generate holes the same size as the polystyrene spheres. Metals are then deposited into these holes and in the last step, both the PMMA/PDDA polymer mask and the photoresist are removed using acetone, to create nanoparticle arrays in a desired pattern on the substrate. […] The PDMS layer was used to create the channels for the microfluidic devices and to prevent solution migration from spot to spot in the spot plates.
Next a target RNA strand containing a DNA hybridizing region, which binds via base pair matching with the ssDNA on the nanoparticle, and a hairpin loop containing a HuR target binding site. […] Last, the HuR protein is added and binds to its target site within the RNA hairpin loop. […]

NFAT = assay: NFAT-luciferase reporter assay in NRVMs; type: cell-based, rat; details: for effect on basal NFAT activity: inhibitor at its IC50, without PE; for NFAT reporter activity, fold vs. vehicle control: 24 hours
Protocol: NRVMs were transfected with 75 ng per well (in a 96-well plate) of NFAT-luciferase reporter plasmid acquired from AddGene (51941) (B. J. Wilkins et al., Calcineurin/NFAT coupling participates in pathological, but not physiological, cardiac hypertrophy, Circ. Res. 94 (2004) 110-118. doi:10.1161/01.RES.0000109415.17511.18, the entire disclosure of which is incorporated herein by this citation). 48 hours after transfection, cells were treated with 10 μM PE for 24 hours to induce NFAT reporter activity. To quantify luciferase reporter expression, cells were rinsed with sterile PBS and then lysed with 50 μL Cell Lysis Buffer (Promega) for 5 min at room temperature, followed by addition of 100 μL luciferase assay reagent (Promega); luminescence was read immediately on the BioTek Cytation 3 image reader. HuR inhibitors were previously identified by Wu et. al. (X. Wu et al., Identification and Validation of Novel Small Molecule Disruptors of HuR-mRNA Interaction, ACS Chem. Biol. (2015) 150317154550000-9. doi:10.1021/cb500851u. the entire disclosure of which is incorporated herein by this citation), and used here as described.

[2] = system: neonatal rat ventricular myocytes (NRVMs); assay: Hypertrophic cell growth of NRVMs, cell area by WGA staining; type: cell-based; details: 10 μM PE for 24 hr, vs vehicle treated control cells
Source text: Neonatal rat ventricular myocytes (NRVMs) were isolated using collagenase digestion and adhesion differential from fibroblasts as described ([…]. Moore-Morris, S. Lange, Isolation and culture of neonatal mouse cardiomyocytes, J Vis Exp. (2013) e50154-e50154. doi:10.3791/50154, the entire disclosure of which is incorporated herein by this citation). Briefly, Sprague Dawley neonatal rats (1-2 days old) (Taconic) were decapitated and the hearts were isolated. Following removal of the atria, the ventricles were cut into small pieces and digested first in 0.05% trypsin/EDTA (Corning) overnight, then in collagenase II (Gibco) for 30 minutes. Cells were then spun at 100×g followed by a 40 minute pre-plating process on non-treated plates to allow the fibroblasts to adhere. The non-adherent NRVMs were then transferred to cell culture-treated dishes in MEM alpha media (Gibco) with 10% FBS. […] All slides were imaged with the BioTek Cytation 3 image reader and quantitative assessment of HuR translocation was measured as the ratio of cytoplasmic to nuclear fluorescent intensity (adjusted for mean background fluorescence and integrated area) using ImageJ.

RCAN1 = assay: Expression of the NFAT target gene RCAN1 by qRT-PCR in NRVMs; type: cell-based, rat; details: PE treated
Protocol: (§1) RNA was isolated using a Macherey-Nagel NucleoSpin RNA kit and cDNA was synthesized using a BioScript All-in-One cDNA Synthesis SuperMix (Biotool). Samples were run on Stratagene Mx3005P (Agilent Technologies) using SYBR Green qPCR Master Mix (Biotool) to assess levels of GAPDH, ANF (atrial natriuretic factor), and RCAN1 (Regulator of Calcineurin 1). Results were analyzed using the ΔΔCt method (K. J. Livak, T. D. Schmittgen, Analysis of relative gene expression data using real-time quantitative PCR and the 2(-Delta Delta C(T)) Method, Methods. 25 (2001) 402-408. doi:10.1006/meth.2001.1262, the entire disclosure of which is incorporated herein by this citation). Primers are as listed: […]

ANF = ANF (hypertrophic marker gene) expression by qRT-PCR in NRVMs; type: cell-based, rat; details: vehicle+PE, 24 hr
Protocol: as §1

[3] = 50 mg/kg 3×/week from week 4, vs Vehicle
[4] = inhibitor at its IC50 simultaneously with PE

Molecule: C[S+]([O-])c1ccc(-c2nc(-c3ccncc3)c(-c3ccc(F)cc3)[nH]2)cc1 (centres unmarked) [SB203580]
HuR translocation, fluorescent intensity ratio (HuR; p38 inhibitor (10 μM) + AngII): 0.76±0.07 | HuR translocation, fluorescent intensity ratio (HuR; p38 inhibitor (10 μM) + PE, PE alone 1.05±0.06): 0.68±0.08

Molecule: CCCCCCCCCCCCCC(=O)O[C@@H]1[C@@H](C)[C@@]2(O)[C@@H](C=C(CO)C[C@]3(O)C(=O)C(C)=C[C@@H]23)[C@@H]2C(C)(C)[C@]12OC(C)=O [PMA]
HuR translocation after direct PKC activation (HuR; 2 μM): lack of HuR translocation

Molecule: CC(C)(C)c1ccc(S(=O)(=O)Nc2ccc3sc(/C=C/C(=O)NO)cc3c2)cc1 [KH-3]
cardiac hypertrophy as heart weight to body weight [1]: strong trend toward a reduction in cardiac hypertrophy | cardiac hypertrophy as heart weight to tibia length ratio [1]: strong trend toward a reduction in cardiac hypertrophy | left ventricle (LV) diameter [1, 3]: blunts further increases | left ventricle end diastolic volume (LV-EDV) [1, 3]: preventing further increases | left ventricle end systolic volume (LV-ESV) [1, 3]: preventing further increases | cardiac function as measured by ejection fraction ([1]; pressure overload-induced hypertrophy): strong trend toward improving cardiac function

Molecule: COc1ccc2c(c[n+](C)c3c4cc5c(cc4ccc23)OCO5)c1OC [chelerythrine]
effect on PE/AngII-mediated HuR translocation (HuR; PKC inhibitor 10 μM): had no effect on HuR translocation; also recorded: shows a trend to enhance HuR translocation | PKC substrate phosphorylation (PKC): a reduction of PKC substrate phosphorylation

leftward LSPR shift (disruption of HuR-RNA binding) (HuR-RNA binding): 10 nm
Molecule: CCN(CC)C(=O)CC(c1cc(OC)c(OC)c(OC)c1)c1c(OC)cc(OC)c2c(-c3ccccc3)cc(=O)oc12 (centres unmarked) [CMLD-1]
effect on basal NFAT activity (NFAT): no significant effect | NFAT reporter activity, fold vs. vehicle control (NFAT; [4]): 1.19±0.30 fold

Molecule: CNC[C@H](O)c1cccc(O)c1 [PE, phenylephrine]
fold increase in cell area/size [2]: 1.29±0.08 fold and 1.39±0.07 fold | NFAT reporter activity, fold vs. vehicle control (NFAT; PE alone 10 μM): 5.02±0.98 fold | HuR translocation, ratio of cytoplasmic to total cell fluorescent intensity (HuR; 24 hr PE, vehicle control 0.71±0.04): 1.82±0.08 | HuR cytoplasmic translocation, fluorescent intensity ratio (HuR; vehicle control 0.71±0.04): 1.05±0.06 | RCAN1 expression fold-induction (RCAN1): 4.43±0.77 fold-induction | ANF expression fold-induction (ANF): 5.4±1.4 fold-induction

Molecule: angiotensin II [AngII, angiotensin receptor AT1 agonist]
HuR cytoplasmic translocation, fluorescent intensity ratio (HuR; vehicle control 0.71±0.04): 1.06±0.04

Molecule: COc1ccc(C(CC(=O)N2CCCC2)c2c(OC)cc(OC)c3c(-c4ccccc4)cc(=O)oc23)cc1 (centres unmarked) [CMLD-2]
effect on basal NFAT activity (NFAT): no significant effect | NFAT reporter activity, fold vs. vehicle control (NFAT; [4]): 1.30±0.14 fold
